# Test results from ChEMBL document CHEMBL1136248, “Further SAR studies on novel small molecule inhibitors of the hepatitis C (HCV) NS5B polymerase” (Bioorg Med Chem Lett, 2003).
# Target: Genome polyprotein (Hepatitis C virus genotype 1a (isolate 1) (HCV), UniProt P26664)
# Test: Inhibition of Hepatitis C RNA dependent RNA polymerase Nonstructural protein 5B activity.
# Sequence of Genome polyprotein (P26664 2421-3011 limits assumed): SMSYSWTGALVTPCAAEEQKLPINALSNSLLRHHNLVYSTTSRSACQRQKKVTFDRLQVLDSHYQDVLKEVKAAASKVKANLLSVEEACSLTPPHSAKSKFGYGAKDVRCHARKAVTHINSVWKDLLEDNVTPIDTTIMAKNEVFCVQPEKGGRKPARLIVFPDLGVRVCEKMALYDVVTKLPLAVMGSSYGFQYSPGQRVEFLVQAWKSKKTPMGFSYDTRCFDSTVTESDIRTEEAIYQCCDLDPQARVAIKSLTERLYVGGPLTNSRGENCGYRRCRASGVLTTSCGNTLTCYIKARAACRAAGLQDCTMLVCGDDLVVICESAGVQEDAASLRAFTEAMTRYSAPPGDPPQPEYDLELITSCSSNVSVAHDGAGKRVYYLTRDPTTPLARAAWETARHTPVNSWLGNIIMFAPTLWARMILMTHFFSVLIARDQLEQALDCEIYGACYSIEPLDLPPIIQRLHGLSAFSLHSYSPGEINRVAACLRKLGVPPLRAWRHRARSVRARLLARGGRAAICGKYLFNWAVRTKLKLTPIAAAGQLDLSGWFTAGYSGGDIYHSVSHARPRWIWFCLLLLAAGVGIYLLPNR
row,Structure (SMILES),IC50
1,O=C(O)[C@H](Cc1ccccc1)N(Cc1cccc(Br)c1)Cc1ccc(Cl)cc1Cl,26 µM
2,O=C(O)[C@H](Cc1ccccc1)N(Cc1cccc(Br)c1)C(=O)Nc1ccc(Cl)cc1Cl,31 µM
3,Cc1cc(Cl)ccc1C(=O)N(Cc1cccc(Br)c1)[C@@H](Cc1ccccc1)C(=O)O,3.7 µM
4,O=C(O)[C@H](Cc1ccccc1)N(Cc1cccc(Br)c1)C(=O)c1cccc(Cl)c1,30 µM
5,O=C(O)[C@H](Cc1ccccc1)N(Cc1cccc(Br)c1)S(=O)(=O)c1ccc(Cl)cc1Cl,31 µM
6,O=C(O)[C@H](Cc1ccccc1)N(Cc1cccc(Br)c1)c1ccc(Cl)cc1Cl,15 µM
7,O=C(O)[C@H](Cc1ccccc1)N(Cc1cccc(Br)c1)C(=O)c1ccc(Cl)nc1Cl,31 µM
8,O=C(O)[C@H](Cc1ccccc1)N(Cc1cccc(Br)c1)C(=O)c1ccc(Cl)cc1I,2.7 µM
9,COc1ccc(C(=O)N(Cc2cccc(Br)c2)[C@@H](Cc2ccccc2)C(=O)O)c(OC)c1,10.7 µM
10,O=C(O)[C@H](Cc1ccccc1)N(Cc1cccc(Br)c1)C(=O)c1c(Cl)cc(Cl)cc1Cl,13 µM
11,O=C(O)[C@H](Cc1ccccc1)N(Cc1cccc(Br)c1)C(=O)c1ccc(Cl)cc1Br,5 µM
12,O=C(O)[C@H](Cc1ccccc1)N(Cc1cccc(Br)c1)C(=O)c1ccc(Cl)cc1Cl,3.5 µM
13,O=C(O)[C@H](Cc1ccccc1)N(Cc1cccc(Br)c1)C(=O)c1ccc(Cl)cc1,10.6 µM
14,O=C(O)[C@H](Cc1ccccc1)N(Cc1cccc(Br)c1)C(=O)c1ccccc1Cl,31 µM
15,O=C(O)[C@H](Cc1ccccc1)N(Cc1cccc(Br)c1)C(=O)c1ccccc1,> 50 µM
16,O=C(O)[C@H](Cc1ccccc1)N(Cc1cccc(Br)c1)C(=O)c1ccc(F)cc1F,43 µM
17,Cc1ccc(C(=O)N(Cc2cccc(Br)c2)[C@@H](Cc2ccccc2)C(=O)O)c(C)c1,5.9 µM
18,CCc1cc(Cl)ccc1C(=O)N(Cc1cccc(Br)c1)[C@@H](Cc1ccccc1)C(=O)O,5.6 µM
19,O=C(O)[C@H](Cc1ccccc1)N(Cc1cccc(Br)c1)C(=O)c1ccc(Cl)c(Cl)c1,30 µM
20,COc1cc(Cl)ccc1C(=O)N(Cc1cccc(Br)c1)[C@@H](Cc1ccccc1)C(=O)O,11 µM
